According to article PMC10253456, “Investigating the Contribution of Major Drug-Metabolising Enzymes to Possum-Specific Fertility Control” (International Journal of Molecular Sciences, 2023):
Where a name gives a salt, the structure may show the parent alone.

Key:
CYP3A [1] = assay: CYP3A catalytic activity (erythromycin N-demethylation) in mouse liver microsomes; conditions: for Percent control catalytic activity at estimated IC50 / Percent control catalytic activity at estimated 2-fold IC50: mouse liver microsomes, initial screen n=1; for Percent control catalytic activity at estimated IC50: compounds without reported IC50 at 1 µM; for Percent control catalytic activity at estimated 2-fold IC50: compounds without reported IC50 at 5 µM; for % of control (catalytic activity at 2-fold IC50) / Catalytic activity at 2-fold IC50: compound at estimated 2-fold IC50 (5 µM where none reported)
CYP3A [2] = assay: CYP3A catalytic activity (erythromycin N-demethylation) in possum liver microsomes; conditions: for Percent control catalytic activity at estimated IC50 / Percent control catalytic activity at estimated 2-fold IC50: possum liver microsomes, initial screen n=1; for Percent control catalytic activity at estimated IC50: compounds without reported IC50 at 1 µM; for Percent control catalytic activity at estimated 2-fold IC50: compounds without reported IC50 at 5 µM; for % of control (catalytic activity at 2-fold IC50) / Catalytic activity at 2-fold IC50: compound at estimated 2-fold IC50 (5 µM where none reported)
Protocol: Possums were collected from the Otago Peninsula (Dunedin) and the Okuti Valley, Banks Peninsula (Christchurch) in New Zealand in collaboration with the Otago Peninsula Biodiversity Group and Manaaki Whenua-Landcare Research, respectively. […] Possums were caged and humanely killed by a blow to the head, and the livers were harvested, snap-frozen in liquid nitrogen, and stored in a freezer at −80 °C until the preparation of microsomal fractions. […] Mice were euthanised by carbon dioxide inhalation and the livers were removed and microsomes prepared. […] The livers from avian species (mallards and a swan) were kindly donated by a local bird hunting group based in Dunedin, New Zealand. The livers from avian species were treated similarly to those mentioned above for the possum samples.
Microsomal preparation was carried out as previously described [76]. […] All procedures were performed at 0–4 °C. The liver samples were minced and homogenised in Buffer A (0.1 M Tris, 0.1 M potassium chloride, 1 mM EDTA, and 20 μM butylated hydroxytoluene, at pH = 7.4) using the Teflon-glass homogeniser (5–6 vertical passes). The samples were centrifuged at 10,000× g for 20 min. The supernatant was then transferred into another set of centrifuge tubes and spun at 100,000× g for 60 min. The pellet was resuspended in Buffer B (0.1 M potassium pyrophosphate, 1 mM EDTA, and 20 μM butylated hydroxytoluene, at pH = 7.4), homogenised, and recentrifuged at 100,000× g for 60 min. Finally, the pellet was homogenised in 1–2 mL of Buffer C (10 mM Tris-HCl, 1 mM EDTA, and 4% glycerol (v/v)), and stored at −80 °C until use. The protein concentration of the microsomes was determined using the bicinchoninic acid (BCA) method [77].
CYP3A catalytic activity was determined using the erythromycin N-demethylation activity assay, as described [78]. The reaction mixture (final volume of 1 mL and final protein concentration of 1 mg) contained 500 µL of microsomes in 0.1 M phosphate buffer (pH 7.4) and 400 µL of erythromycin buffer (0.45 mM), and 50 µL of the test compound was pre-warmed at 37 °C for 2 min. The reaction was initiated with 50 µL of 2.5 mM nicotinamide adenine dinucleotide phosphate (NADP^+) and incubated for 30 min at 37 °C. […] The tubes were vortexed and left for 5 min (at room temperature), and then 330 µL of saturated barium hydroxide was added. The tubes were further vortexed and left for 5 min (at room temperature). The tubes were then centrifuged at 1800× g for 10 min. To 830 µL of the supernatant, 330 µL of Nash reagent (30% (w/v) ammonium acetate, 0.4% (v/v) acetylacetone) was added and further incubated for 30 min at 60 °C. The blank tube contained 330 µL of Nash reagent and 830 µL of Milli-Q water. […] The CYP3A activities were determined in nmol/mg/min using standard curve data. Results presented are the mean ± SEM of 3 independent experiments performed in duplicate unless otherwise stated.

Row | Structure (SMILES) | Percent control catalytic activity at estimated IC50 (CYP3A [1]) [percent control] | Percent control catalytic activity at estimated 2-fold IC50 (CYP3A [1]) [percent control] | Percent control catalytic activity at estimated IC50 (CYP3A [2]) [percent control] | Percent control catalytic activity at estimated 2-fold IC50 (CYP3A [2]) [percent control] | % of control (catalytic activity at 2-fold IC50) (CYP3A [1]; mouse) | Catalytic activity at 2-fold IC50 (CYP3A [1]; mouse) [nmol/mg/min] | % of control (catalytic activity at IC50) (CYP3A [1]; mouse, compound at estimated IC50 (1 µM where none reported)) | % of control (catalytic activity at 2-fold IC50) (CYP3A [2]; possum) | Catalytic activity at 2-fold IC50 (CYP3A [2]; possum) [nmol/mg/min] | % of control (catalytic activity at IC50) (CYP3A [2]; possum, compound at estimated IC50 (1 µM where none reported))
1 | COc1cc2c(=O)c3c(O)c([C@@H]4O[C@H](CO[C@@H]5OC[C@](O)(CO)[C@H]5O)[C@@H](O)[C@H](O)[C@H]4O)c(O)cc3oc2cc1O [Polygalaxanthone III] | 92 | 94 | 102 | 108 | – | – | – | – | – | –
2 | O=C1c2ccc(O)cc2C(=O)c2ccc(O)cc21 [2,6-Dihydroxyanthraquinone] | 106 | 128 | 97 | 102 | – | – | – | – | – | –
3 | CC(=O)O[C@H]1CC[C@@]2(C)C(=CC[C@@H]3[C@@H]2CC[C@]2(C)C(c4cccnc4)=CC[C@@H]32)C1 [Abiraterone Acetate] | 85 | 89 | 128 | 110 | – | – | – | – | – | –
4 | CC(C)(C)C(O)/C=C/c1ccc2c(c1)OCO2 (centres unmarked) [Stiripentol] | 119 | 102 | 109 | 105 | – | – | – | – | – | –
5 | CCc1ccc(CCOc2ccc(CC3SC(=O)NC3=O)cc2)nc1 (centres unmarked) [Pioglitazone HCl] | 98 | 100 | 99 | 87 | – | – | – | – | – | –
6 | O=C(O)c1ccc(-n2nc(-c3ccccc3O)nc2-c2ccccc2O)cc1 [Deferasirox] | 87 | – | 93 | – | – | – | – | – | – | –
7 | C=CCSCC=C [Diallyl sulfide] | 72 | 84 | 103 | 96 | – | – | – | – | – | –
8 | O=C(O)/C=C/c1ccc(Cn2ccnc2)cc1 [Ozagrel] | 93 | 92 | 97 | 109 | – | – | – | – | – | –
9 | O=[N+]([O-])c1cn(C(c2ccccc2)(c2ccccc2)c2ccccc2)cn1 [CDD3505] | 88 | 89 | 129 | 145 | – | – | – | – | – | –
10 | C[C@@H]1O[C@@H](O[C@H]2[C@H](Oc3cc(O)c(C(=O)CCc4ccc(O)cc4)c(O)c3)O[C@H](CO)[C@@H](O)[C@@H]2O)[C@H](O)[C@H](O)[C@H]1O [Naringin Dihydrochalcone] | 92 | 96 | 111 | 87 | 102 % of control | 0.54 ± 0.07 | 97 % of control | 92 % of control | 0.33 ± 0.02 | 106 % of control
11 | O=C(O)[C@H](O)Cc1ccc(O)c(O)c1 [Danshensu] | 97 | – | 113 | – | – | – | – | – | – | –
12 | CC(C)(C)C(O)/C(=C\c1ccc(Cl)cc1)n1cncn1 (centres unmarked) [Uniconazole] | 67 | 40 | 82 | 84 | – | – | – | – | – | –
13 | O=c1c(O)c(-c2ccccc2)oc2cc(O)cc(O)c12 [Galangin] | 131 | 123 | 115 | 103 | – | – | – | – | – | –
14 | Cl.O=C(O)/C=C/c1ccc(Cn2ccnc2)cc1 [Ozagrel HCl] | 92 | 85 | 121 | 95 | – | – | – | – | – | –
15 | O=C1C[C@@H](c2ccc(O)cc2)Oc2cc(O)cc(O)c21 [Naringenin] | 71 | – | 84 | – | 240 % of control | 1.09 ± 0.04 | – | 175 % of control | 0.56 ± 0.02 | –
16 | COc1cc2c(cc1OC)[C@@H](Cc1ccc(Oc3cc(C[C@@H]4c5cc(OC)c(OC)cc5CCN4C)ccc3O)cc1)N(C)CC2 [Dauricine] | 113 | 112 | 108 | 117 | – | – | – | – | – | –
17 | CC12CC3CC(C)(C1)CC(N)(C3)C2 [Memantine HCl] | 104 | 98 | 117 | 109 | – | – | – | – | – | –
18 | CC(C)c1cc(C(C)C)c(CC(=O)NS(=O)(=O)Oc2c(C(C)C)cccc2C(C)C)c(C(C)C)c1 [Avasimibe] | 91 | 92 | – | – | – | – | – | – | – | –
